The values below come from ChEMBL document CHEMBL3632505, “Forsythoneosides A-D, Neuroprotective Phenethanoid and Flavone Glycoside Heterodimers from the Fruits of Forsythia suspensa” (2015).

In assay [1] the test system is PC-12. As to the kind of experiment: Neuroprotective activity against rotenone-induced cell damage in rat PC12 cells assessed as cell viability at 1 uM after 48 hrs by MTT assay (reference value: 53.9 +/- 7.1%). Type of assay: functional. The settings on record: for viability at 1 µM: Rattus norvegicus, PC-12, 48 h, read-out: Activity. (Formazan colour is commonly taken as a measure of viable cells.)

Assay [2] deals with PC-12. In words: Neuroprotective activity against rotenone-induced cell damage in rat PC12 cells assessed as cell viability at 0.1 uM after 48 hrs by MTT assay (reference value: 53.9 +/- 7.1%). The conditions noted are these: for viability at 0.1 µM: Rattus norvegicus, PC-12, 48 h, read-out: Activity. It is filed as functional.
Assay [3] relates to PC-12. As to the kind of experiment: Neuroprotective activity against rotenone-induced cell damage in rat PC12 cells assessed as cell viability at 10 uM after 48 hrs by MTT assay (reference value: 53.9 +/- 7.1%). Type of assay: functional. The settings on record: for viability at 10 µM: Rattus norvegicus, PC-12, 48 h, read-out: Activity.
The subject of assay [4] is PC-12. In words: Neuroprotective activity against rotenone-induced cell damage in rat PC12 cells assessed as increase in cell viability after 48 hrs by MTT assay. It is filed as functional, cell-based.

As for `C[C@@H]1O[C@@H](OC[C@H]2O[C@@H](Oc3c(-c4ccc(O)c(O)c4)oc4c(-c5cc(O)c(O)cc5CCO[C@@H]5O[C@H](CO[C@@H]6O[C@@H](C)[C@H](O)[C@@H](O)[C@H]6O)[C@@H](OC(=O)/C=C/c6ccc(O)c(O)c6)[C@H](O)[C@H]5O)c(O)cc(O)c4c3=O)[C@H](O)[C@@H](O)[C@@H]2O)[C@H](O)[C@H](O)[C@H]1O` (stereo in doubt; 3) [listing 1 of 2 here], the viability at 1 µM in assay [1] amounted to 64%. The viability at 0.1 µM in assay [2] turned out to be 54.3%. Further, the Activity in assay [3] is 93.2%.
Take `C[C@@H]1O[C@@H](OC[C@H]2O[C@@H](Oc3c(-c4ccc(O)c(O)c4)oc4c(-c5cc(O)c(O)cc5CCO[C@@H]5O[C@H](CO[C@@H]6O[C@@H](C)[C@H](O)[C@@H](O)[C@H]6O)[C@@H](OC(=O)/C=C/c6ccc(O)c(O)c6)[C@H](O)[C@H]5O)c(O)cc(O)c4c3=O)[C@H](O)[C@@H](O)[C@@H]2O)[C@H](O)[C@H](O)[C@H]1O` (stereo in doubt; 4) [listing 1 of 2 here]: the Activity in assay [1] amounted to 75.5%; in assay [2], 67.9%. In assay [3], the viability at 10 µM stood at 96.2%.
Take `O=C(/C=C/c1ccc(O)c(O)c1)O[C@H]1[C@H](O)[C@@H](O)[C@H](OCCc2ccc(O)c(O)c2)O[C@@H]1CO[C@@H]1OC[C@@H](O)[C@H](O)[C@H]1O`: in assay [3], the viability at 10 µM stood at 56.2%.
On to `C[C@@H]1O[C@@H](OC[C@H]2O[C@@H](Oc3c(-c4ccc(O)c(O)c4)oc4cc(O)cc(O)c4c3=O)[C@H](O)[C@@H](O)[C@@H]2O)[C@H](O)[C@H](O)[C@H]1O` [RUTIN], for which the viability at 10 µM in assay [3] stood at 67.9%.
For `C[C@@H]1O[C@@H](OC[C@H]2O[C@@H](OCCc3ccc(O)c(O)c3)[C@H](O)[C@@H](O)[C@@H]2OC(=O)/C=C/c2ccc(O)c(O)c2)[C@H](O)[C@H](O)[C@H]1O` [FORSYTHIASIDE], the viability at 10 µM in assay [3] is 60.4%.
Regarding `C[C@@H]1O[C@@H](OC[C@H]2O[C@@H](Oc3c(-c4ccc(O)c(O)c4)oc4c5c(cc(O)c4c3=O)Oc3cc(O)c(O)cc3[C@@H]5CO[C@@H]3O[C@H](CO[C@@H]4O[C@@H](C)[C@H](O)[C@@H](O)[C@H]4O)[C@@H](OC(=O)/C=C/c4ccc(O)c(O)c4)[C@H](O)[C@H]3O)[C@H](O)[C@@H](O)[C@@H]2O)[C@H](O)[C@H](O)[C@H]1O`, in assay [1], the viability at 1 µM was 75%. Besides, the viability at 0.1 µM in assay [2] was 70.1%. Also, in assay [3], the viability at 10 µM worked out at 91.2%. The Activity result in assay [4] was “Dose-dependent effect”.
The corresponding values for `C[C@@H]1O[C@@H](OC[C@H]2O[C@@H](Oc3c(-c4ccc(O)c(O)c4)oc4c5c(cc(O)c4c3=O)Oc3cc(O)c(O)cc3[C@H]5CO[C@@H]3O[C@H](CO[C@@H]4O[C@@H](C)[C@H](O)[C@@H](O)[C@H]4O)[C@@H](OC(=O)/C=C/c4ccc(O)c(O)c4)[C@H](O)[C@H]3O)[C@H](O)[C@@H](O)[C@@H]2O)[C@H](O)[C@H](O)[C@H]1O` are 59.2%, 55.8%, 81.1% and “Dose-dependent effect”.
As for `C[C@@H]1O[C@@H](OC[C@H]2O[C@@H](Oc3c(-c4ccc(O)c(O)c4)oc4c(-c5cc(O)c(O)cc5CCO[C@@H]5O[C@H](CO[C@@H]6O[C@@H](C)[C@H](O)[C@@H](O)[C@H]6O)[C@@H](OC(=O)/C=C/c6ccc(O)c(O)c6)[C@H](O)[C@H]5O)c(O)cc(O)c4c3=O)[C@H](O)[C@@H](O)[C@@H]2O)[C@H](O)[C@H](O)[C@H]1O` (stereo in doubt; 4) [listing 2 of 2 here], the Activity entry in assay [4] was “Dose-dependent effect”.
As for `COC1=C(OC)C(=O)C(C/C=C(\C)CC/C=C(\C)CC/C=C(\C)CC/C=C(\C)CC/C=C(\C)CC/C=C(\C)CC/C=C(\C)CC/C=C(\C)CC/C=C(\C)CCC=C(C)C)=C(C)C1=O` [UBIDECARENONE], in assay [3], the viability at 10 µM amounted to 59%.
Regarding `C[C@@H]1O[C@@H](OC[C@H]2O[C@@H](Oc3c(-c4ccc(O)c(O)c4)oc4c(-c5cc(O)c(O)cc5CCO[C@@H]5O[C@H](CO[C@@H]6O[C@@H](C)[C@H](O)[C@@H](O)[C@H]6O)[C@@H](OC(=O)/C=C/c6ccc(O)c(O)c6)[C@H](O)[C@H]5O)c(O)cc(O)c4c3=O)[C@H](O)[C@@H](O)[C@@H]2O)[C@H](O)[C@H](O)[C@H]1O` (stereo in doubt; 3) [listing 2 of 2 here], the Activity result in assay [4] was “Dose-dependent effect”.
